Assay [1] relates to primary human corneal endothelial cells (HCEnCs). In words: Phase-contrast morphology of primary HCEnCs cultures treated with CHIR. It counts as cell-based. The method, then: Human corneas tissues (obtained after informed consent to the eye bank and the use was approved by the ethical committee) were preserved in media for tissue preservation as for example Eusol, OptiSOL or others and used within approximately 15 days from death; a list of detail for some corneas used and relative experiments is shown in Table 1. HCEnCs were isolated through Descemet's stripping and digestion with Collagenase A (Roche) for 1-16 h at 30-39° C. After 5-10 minutes in Trypsin or other proteolytic enzymes at 37° C., HCEnCs were pelleted at 1,200 rpm for 3 min and plated in FNC Coating mix treated wells.
(§1) HCEnCs were cultured between 31 and 39° C. in 4-10% CO2, changing the growth medium every other day. The growth medium can be OptiMEM-I, MEM, F12, Human Endothelial SFM, 2-10% HyClone fetal bovine serum (FBS), 2-10 ng/ml epidermal growth factor (EGF), 5-50 μg/mL ascorbic acid, 40-300 mg/L calcium chloride, 0.01-0.2% chondroitin sulphate, and penicillin/streptomycin. Upon confluency, HCEnCs were rinsed in DPBS and passaged at a ratio of 1:2 or 1:3 with Trypsin or other proteolytic enzymes for 10-30 min at 31-39° C. in 4-10% CO2. Sub-confluent cultures were harvested approximately 1 day after plating.
(§2) Before or whenever primary HCEnCs encountered a morphological variation, the GSK inhibitor CHIR99021 (also defined as 6-[[2-[[4-(2,4-Dichlorophenyl)-5-(5-methyl-1H-imidazol-2-yl)-2-pyrimidinyl]amino]ethyl]amino]-3-pyridinecarbonitrile) was prepared and added to the culture media at a concentration range of 0.1-10 μM. Multiple solvents and methods have been used to dissolve CHIR stock solution. Ultrasonic were applied for CHIR dilutions in sodium carboxymethyl cellulose (CMC-Na) in saline water and 20% Sulfobutylether-β-Cyclodextrin (SBE-β-CD), adjusted to pH 3-6, with 1 N acetic acid. CHIR can be also diluted in dimethyl sulfoxide (DMSO) at 70-100% (v/v), with a solution composed of 10% DMSO 40% PEG300 5% Tween-80 in saline water or composed of 10% DMSO and 20% SBE-β-CD in saline water. Once obtained a clear solution, the stock solution was aliquoted and stored at-20/−80° C. until use.

For assay [2] the test system is unchanged. In words: Immunofluorescence of ZO-1 and α-SMA markers in primary HCEnCs. The class given is cell-based. The method, then:
as §1, §2
(§3) Immunofluorescence staining was performed on primary cultured HCEnCs after fixation in 3% PFA 15 min at room temperature (RT). Triton X-100 used at 1% for 10 min at RT allowed cell permeabilization and a solution of bovine serum albumin (BSA) 2%, FBS 2%, Triton X-100 at 0.01% in PBS was used for 30 min at 37° C. to block the non-specific binding sites. Primary and secondary antibodies were incubated for 1 h at 37° C. while nuclei were counterstained with DAPI at RT for 5 minutes before mounting the glass coverslips using amounting medium such as DAKO. Primary antibodies used herein are listed in Table 2 while secondary antibodies used are: Alexa Fluor 488 anti-rabbit, 1:2,000, and Alexa Fluor 568 anti-mouse, 1:1,000 (Thermo Fisher Scientific). Images were obtained with a confocal microscope (LSM900 Airyscan—Carl Zeiss).

The test system is the same in assay [3]. In words: Cell cycle analysis by FACS (propidium iodide) of sub-confluent HCEnCs. As to conditions: sub-confluent HCEnCs P5-P6-P8, CHIR 0.1-9 μM vs untreated. It counts as cell-based. The method, then: The cell cycle was studied by staining sub-confluent cultures of […] with Propidium Iodide (PI; Sigma-Aldrich). […] from cell culture were washed with DPBS and incubated for 1 h at 4° C. in the dark with 250 μL of a PBS solution composed by PI 50 μg/mL, Triton X-100 (Bio-Rad, USA) at 0.1%. Cells were then analysed using BD FACSCanto II (BD BIOSCIENCES; San Jose, CA USA). For each sample, 20,000 events were considered for the analysis to ensure statistical relevance and results were analysed with a ModFit 3.0 software.
For orientation: Flow cytometry measures light scatter and fluorescence of single cells or particles in a stream.

Assay [4] has the same test system. Put plainly: HCEnCs count upon detachment at confluency for progressive passages. It counts as cell-based. Conditions: CHIR 0.1-9 μM vs relative untreated control. The method, then:
[…] were cultured between 31 and 39° C. in 4-10% CO2, changing the growth medium every other day. The growth medium can be OptiMEM-I, MEM, F12, Human Endothelial SFM, 2-10% HyClone fetal bovine serum (FBS), 2-10 ng/ml epidermal growth factor (EGF), 5-50 μg/mL ascorbic acid, 40-300 mg/L calcium chloride, 0.01-0.2% chondroitin sulphate, and penicillin/streptomycin. Upon confluency, […] were rinsed in DPBS and passaged at a ratio of 1:2 or 1:3 with Trypsin or other proteolytic enzymes for 10-30 min at 31-39° C. in 4-10% CO2. Sub-confluent cultures were harvested approximately 1 day after plating.

The test system is the same in assay [5]. In words: Immunofluorescence of ki67 in sub-confluent HCEnCs. The class given is cell-based. The method, then:
as §3, with “HCEnCs” left out, “Airyscan-Carl” for “Airyscan—Carl”

Assay [6] deals with corneal endothelial derived cell line, B4G12. Conditions: B4G12 cell line (Wang et al., 2022); cited from earlier work.
[7] abbreviates: P1, CHIR at 0.1-9 μM, vs untreated (ctr).
Setting [8] is: P1, CHIR at a concentration >10 μM.

Each structure is given as a SMILES string.

For `Cc1cnc(-c2cnc(NCCNc3ccc(C#N)cn3)nc2-c2ccc(Cl)cc2Cl)[nH]1` [CHIR, 6-[[2-[[4-(2,4-Dichlorophenyl)-5-(5-methyl-1H-imidazol-2-yl)-2-pyrimidinyl]amino]ethyl]amino]-3-pyridinecarbonitrile], the “reversion of elongated morphology” value in assay [1] (CHIR 0.1-9 μM added at a later passage, P6 confluence) was “able to reverse the elongated morphology”. Moreover, the “reversion of cell phenotype / morphology” value in assay [1] (CHIR 0.1-9 μM applied to HCEnCs already elongated in culture (P3)) is listed as “restoring a polygonal morphology”. Further, the “reversion of elongated phenotype” value in assay [1] (CHIR 0.1-9 μM, progressive passages, at least up to P8) is on record as “reversing the elongated phenotype”. The HCEnCs morphology result in assay [1] (P1, CHIR at 0.1-9 μM, vs untreated HCEnCs (ctr)) was “restored the polygonal morphology”; in assay [1] (P1, CHIR at concentrations >10 μM, vs untreated cells) it was “exacerbated elongated morphology”; in assay [1] (P3, CHIR 0.1-9 μM vs untreated (ctr)) it was “untreated cells (ctr) appeared more elongated than CHIR treated HCEnCs”. Moreover, the “percentage of α-SMA expressing cells” value in assay [2] (P1, CHIR 0.1-9 μM, untreated approx. 40%) is given as about 17%. The ZO-1 expression result is recorded as “restored sealed ZO-1 pattern of expression” in assay [2] (setting [7]); “disappearance of ZO-1 expression” in assay [2] (setting [8]); “restores ZO-1 pattern of tight junctions” in assay [2] (P3, CHIR 0.1-9 μM). Further, the α-SMA expression entry is recorded as “reduced levels of α-SMA” in assay [2] (setting [7]); “highly expressed in every cell” in assay [2] (setting [8]); “drastically reduces expression of α-SMA” in assay [2] (P3, CHIR 0.1-9 μM). Also, the “endothelial to mesenchymal transition (EnMT)” value in assay [2] (setting [8]) is listed as “accelerated the process of endothelial to mesenchymal transition”. Also, the “percentage of cells at G2/M” value in assay [3] is on record as “reduced the percentage of cells at G2/M”. Also, in assay [3], the “percentage of cells in G0/G1 phase of cell cycle” value is given as “enhanced the percentage of cells in G0/G1 phase”. In addition, in assay [4], the “number of HCEnCs at confluency for each passage” value is on record as “constantly lower”. Moreover, the cell proliferation rate result in assay [5] (primary HCEnCs, evaluated with different assays (FACS, count, ki67)) was “does not enhance cell proliferation rate”. Also, the “ki67 protein expressing cells” value in assay [5] (sub-confluent HCEnCs P5, Strain 3, CHIR 0.1-9 μM vs untreated) is “equal”; in assay [5] (sub-confluent HCEnCs P5, Strain 4, p<0.05, CHIR 0.1-9 μM vs untreated), “significant reduction”. Moreover, in assay [6], the cell proliferation entry is listed as “concomitant enhancement in cell proliferation”. In assay [6], the mesenchymal conversion entry is listed as “prevent mesenchymal conversion (but not to reverse it)”.

(Values after patent US20260117173A1, “METHOD FOR MESENCHYMAL PHENOTYPE REVERSION IN PRIMARY HUMAN CORNEAL ENDOTHELIAL CELLS” (UNIVERSITÀ DEGLI STUDI DI MODENA E REGGIO EMILIA, priority 2022, published 2026).)
